ChEMBL document CHEMBL1127634, “Calculation of relative differences in the binding free energies of HIV1 protease inhibitors: a thermodynamic cycle perturbation approach” (J Med Chem, 1994)

Target: Human immunodeficiency virus type 1 protease (Human immunodeficiency virus 1, UniProt Q72874)
Test: Binding affinity against HIV -1 protease

Row | SMILES | Ki [nM]
1 | O=C(CC[C@H](O)[C@H](Cc1ccccc1)NC(=O)CC(NC(=O)c1ccc2ccccc2n1)C(=O)O)NC(c1cccc(C(F)(F)F)c1)c1cc2ccccc2[nH]1 (stereo not given in full) | 33
2 | Cc1cccc(C(NC(=O)CC[C@H](O)[C@H](Cc2ccccc2)NC(=O)CC(NC(=O)c2ccc3ccccc3n2)C(=O)O)c2cc3ccccc3[nH]2)c1 (stereo not given in full) | 39
3 | C[C@H](N)C(=O)N[C@@H](C)C(=O)N[C@@H](Cc1ccccc1)[C@@H](O)CCC(=O)NC(c1ccccc1)c1cc2ccccc2[nH]1 (stereo not given in full) | 43
4 | O=C(CC[C@H](O)[C@H](Cc1ccccc1)NC(=O)CC(NC(=O)c1ccc2ccccc2n1)C(=O)O)NC(c1ccccc1)c1cc2ccccc2[nH]1 (stereo not given in full) | 200
5 | C[C@H](N)C(=O)N[C@@H](C)C(=O)N[C@@H](Cc1ccccc1)[C@@H](O)CCC(=O)NC(c1ccccc1)c1nc2ccccc2[nH]1 (stereo not given in full) | 5370
